Experiments:
EV-A71 [1] = assay: EV-A71 inactivation (virucidal) assay; set-up: species or system Human enterovirus A71; conditions: 10 µM, 2 h at 25°C, TCID50
Description: Fig. S5. […] (A) EV-A71 inactivation assay. […] (B) EV-A71 attachment assay. […] After 2 hpi, the infectious inoculum was removed and cells were washed again. The intracellular viral RNA load was then determined using RT-qPCR analysis. (C) EV-A71 entry assay.

EV-A71 [2] = assay: Multi-cycle virus growth assay in RD cells (TCID50); type: cell-based, Human enterovirus A71; conditions: 10 µM, MOI 0.01, entire time-course
Excerpt: RD cells were infected with EV‐A71 at an MOI of 0.01. Viral titers in cell culture supernatants were quantified by TCID50 assay at indicated time points. […] RD cells were infected with EV‐A71 at an MOI of 1. […] At 12 hpi, the cells were lysed for detecting mRNA expression levels of proinflammatory cytokines and chemokines. IL-6, interleukin 6; IL-8, interleukin 8; TNF-α, tumor necrosis factor-α.

Akt phosphorylation = assay: Western blot of phosphorylated Akt and total Akt in RD cells; type: cell-based
Description: Western blot analysis was performed as described previously ([26]). In brief, the indicated cell samples were lysed in RIPA buffer supplemented with protease inhibitors (Thermo Fisher Scientific, 78430). The cell lysates were then separated in 10% SDS-PAGE and transferred to a 0.45-µm nitrocellulose membrane. After blocking, the membrane was incubated with an against VP1 antibody (GeneTex, GTX132339), VEGFR1 antibody (Abcam, ab32152), VEGFR2 antibody (Abcam, ab134191), phosphorylated VEGFR2 antibody (Tyr951) (CST 4991), VEGFR3 antibody (Beyotime, AF6918), Akt antibody (CST 4685), phosphorylated Akt antibody (CST 4060), or GAPDH antibody (GeneTex, GTX627408) diluted 1:5,000 in primary antibody dilution buffer overnight at 4°C, followed by corresponding secondary staining. The blots were visualized by western horseradish peroxidase substrate and imaged with Gel Doc XR+.
Fig. S8. Viral reduction in RD cells with Akt inhibitor treatment. […] Significant inhibition of EV-A71 infection was found for both cell lysate (left) and supernatant (middle) using RT-qPCR analysis. The results represent the viral load in the cells treated with MK-2206 relative to that in DMSO-treated cells. Viral titer was also determined for inhibitor-treated samples in TCID50 assays (right). […] (C) The levels of VP1, phosphorylated Akt and total Akt protein were measured for samples treated with DMSO or MK-2206 using western blotting.
Fig. S9. […] (A) RD cells were infected with EV-A71 at an MOI of 1, and cell lysates were collected at the indicated times. Western blotting assays were then performed to assess the levels of phosphorylated Akt and total Akt. (B)The plasmids pVEGFR2 or pEmpty vector were transfected into RD cells. At the indicated times post-transfection, cells were harvested to detect the expression levels of phosphorylated Akt and total Akt by western blotting. […] Western blotting assays were then performed to assess the levels of phosphorylated Akt and total Akt. […] At 1 hpi, cells were harvested to detect the expression levels of phosphorylated Akt and total Akt by western blotting. […]

EV-D70 = assay: Antiviral activity against EV-D70 in RD cells (RT-qPCR, TCID50); type: cell-based, enterovirus D70; conditions: 10 µM, 0.1 MOI, 24 h
Description: Detection of cellular mRNA expression and viral load was performed as described previously ([24]). In brief, the infected or mock-infected cells were lysed and applied to total RNA extraction by using the MiniBEST Universal RNA Extraction Kit (TaKaRa, Code No.9767). Viral RNA in the supernatant was extracted with the MiniBEST Viral RNA Extraction Kit (TaKaRa, Code No.9766). Reverse transcription was performed using the PrimeScript RT reagent Kit (TaKaRa, Code No.PR037A) with an oligo (dT) primer. The resultant cDNAs were used for qPCR assay with the Light Cycler 480 SYBR Green I Master Mix (Roche) to measure the mRNA expression level of cellular genes or viral load in supernatants. The relative viral gene copy was determined by RT-qPCR, using GAPDH as an internal reference.
The viral titer in the indicated samples was determined by TCID50 assay as described previously ([25]). Briefly, serially diluted samples from 10^−1 to 10^−8 in DMEM were inoculated to RD cells, BGMK cells, or MRC-5 in 96‐well plates. The cells were then incubated for 2 to 3 days at 37°C. TCID50 was calculated by counting the wells with cytopathic effect in infected cells using the Reed–Muench method.
The viral gene copy in the cell lysate is normalized with the transcript of GAPDH and presented. Viral titers were also detected by TCID50 assay. […] All experiments were independently repeated thrice.

[3] = CellTiter-Glo luminescent cell viability assay (cytotoxicity); conditions: human, RD cells
Description: Fig. S1. (A) RD cells were treated with the indicated concentrations of inhibitors and incubated at 37°C for 24 h. CellTiter‐Glo® luminescent cell viability assay was used to measure the CC50 of selected inhibitors. […] (B) RD cells treated with the selected inhibitors (10 μM) were inoculated with EV-A71 at an MOI of 0.01. At 48 hpi, cells were harvested to detect the expression level of VP1 by western blotting.

## Cc1ccc(Nc2nccc(N(C)c3ccc4c(C)n(C)nc4c3)n2)cc1S(N)(=O)=O [Pazopanib]
EV-A71 [1]
  virucidal effect (EV-A71 virus titers vs DMSO): no virucidal effect
EV-A71 [2]
  decrease of viral titers in the cell supernatant vs DMSO: over 4 logs
Akt phosphorylation; 10 µM pretreatment
  Akt phosphorylation in mock-infected cells: significantly attenuated Akt phosphorylation
Akt phosphorylation; 10 µM, MOI 1, 1 hpi
  EV-A71-stimulated Akt phosphorylation: inhibited
EV-D70
  decrease in viral load and viral titer: over 2 logs
[3]
  CC50 at 24 h: 226 ± 27.6 µM

Source: article PMC11542593, “Vascular endothelial growth factor receptor 2 as a potential host target for the inhibition of enterovirus replication” (Journal of Virology, 2024)
